From ChEMBL document CHEMBL1144083, “Phenylvaleric acid and flavonoid glycosides from Polygonum salicifolium” (J Nat Prod, 1999)
Calls of active or inactive are those of the source. No cut-off for these calls is given here.

Columns and labels:
Format in all cases: functional
[1] = test system: Radical scavenging activity; assay: Antioxidant activity assessed as DPPH free radical scavenging activity by TLC autographic assay
[2] = test system: Radical scavenging activity; assay: Antioxidant activity assessed as DPPH free radical scavenging activity at 8 ug by TLC autographic assay
[3] = test system: Radical scavenging activity; assay: Antioxidant activity assessed as DPPH free radical scavenging activity at 6 ug by TLC autographic assay
[4] = test system: Radical scavenging activity; assay: Antioxidant activity assessed as DPPH free radical scavenging activity at 2 ug by TLC autographic assay
[5] = test system: Radical scavenging activity; assay: Antioxidant activity assessed as DPPH free radical scavenging activity at 4 ug by TLC autographic assay

Row | Structure (SMILES) | Activity [1] | Activity [2] | Activity [3] | Activity [4] | Activity [5]
1 | O=C(O)C[C@@H](CCc1ccccc1)O[C@H]1O[C@@H](CO)[C@H](O)[C@@H](O)[C@@H]1O | inactive |  |  |  | 
2 | CCCCOC(=O)C[C@@H](CCc1ccccc1)O[C@H]1O[C@@H](CO)[C@H](O)[C@@H](O)[C@@H]1O | inactive |  |  |  | 
3 | O=C(O[C@H]1[C@H](Oc2c(-c3ccc(O)c(O)c3)oc3cc(O)cc(O)c3c2=O)O[C@H](CO)[C@@H](O)[C@@H]1O)c1cc(O)c(O)c(O)c1 |  | Active | Active | Active | Active
4 | COc1cc(O[C@@H]2O[C@H](CO[C@@H]3O[C@H](CO)[C@@H](O)[C@H](O)[C@H]3O)[C@@H](O)[C@H](O)[C@H]2O)c(OC)c(O)c1C(=O)CCc1ccccc1 | inactive |  |  |  | 
5 | O=c1c(O[C@@H]2O[C@H](CO)[C@@H](O)[C@H](O)[C@H]2O)c(-c2ccc(O)c(O)c2)oc2cc(O)cc(O)c12 |  | Active | Active | Active | Active
6 | O=C(O)[C@H]1O[C@@H](Oc2c(-c3ccc(O)c(O)c3)oc3cc(O)cc(O)c3c2=O)[C@H](O)[C@@H](O)[C@@H]1O |  | Active | Active | Active | Active
7 | O=c1c(O[C@@H]2O[C@H](CO)[C@H](O)[C@H](O)[C@H]2O)c(-c2ccc(O)c(O)c2)oc2cc(O)cc(O)c12 |  | Active | Active | Active | Active
